Values quoted from earlier work, collected in US9403813B2, “Azetidine amide derivatives as orexin receptor antagonists” (ACTELION PHARMACEUTICALS LTD, priority 2013, dated 2016).

Legend:
rodents [1] = settings: cited from earlier work
rodents [2] = settings: cited from earlier work; remark: listed apart in the source

For `Cn1c(SCC(=O)N2CCC[C@H]2C(=O)Nc2ccccc2-c2ccccc2)nc2ccccc21` [N-Biphenyl-2-yl-1-{[(1-methyl-1H-benzimidazol-2-yl)sulfanyl]acetyl}-L-prolinamide], the “behavioral and molecular changes induced by repeated amphetamine” value (rodents [1]) is listed as “reduced behavioral (locomotor sensitization) and molecular (transcriptional responses) changes” and the “nicotine-reinstatement for a conditioned reinforcer” value (rodents [2]) is listed as “inhibited nicotine-reinstatement for a conditioned reinforcer”.
